From PMC12056667 (Chemical Science, 2025) come the findings set out here.

Broadly, the Kd is a measure of binding affinity in units of concentration.

Experiment [1] addresses T1, Tet(X4) (Escherichia coli, UniProt A0A3T0V9Y5). In words: Absorbance activity assay (tigecycline turnover, A400). In kind it is biochemical. As to conditions: for inhibition in the absorbance assay (in words): AZT up to 1 mM. From the text: We then tested the binding of reported type 1 TDase inhibitors to Tet(X4) (Fig. 3f, ESI Fig. S17 ^†).[33,38,39] […] These compounds gave similar apparent IC50^app values, in accord with trends in IC50 measurements performed by Markley et al.[33] […] We also developed a complementary endpoint activity assay where the turnover of tigecycline by Tet(X4) in a 96-well plate was quenched by addition of 1%v/v formic acid and analysed chromatographically. The peak integrals of tigecycline and its hydroxylated degradation product at 254 nm following UPLC analysis were measured to determine turnover (Fig. 5a). As this method separates components by chromatography, it enables IC50 measurements independent of potential interference from UV-active inhibitors (Fig. 5b). […] The apparent synergy of AZT with tetracyclines against whole cells expressing Tet(X4)[40] is therefore interesting and may derive from the proposed ability of AZT to interfere with DNA synthesis in bacteria,[40,53] or other unidentified mechanisms. […] Note, however, that plumbagin and 2-MNQ are naphthoquinones, which are well-characterised redox-active pan-assay interference (PAINS) moieties.[54]
233 Absorbance Activity Assays
234 A solution containing 100 mM TAPS (pH 8.5), 2 µM FAD, 10 mM MgCl2 and 100 nM Tet(X4) was
235 dispensed into a 384 well µClear plate (Greiner Bio-One), 25 µL per well, using a microplate reagent
236 dispenser. A 3-fold, 10-point dilution series of the substrates and inhibitors was made in DMSO with
237 the highest concentration of 50 mM, unless otherwise stated, and transferred to the enzyme solution in
238 technical quadruplicate using a CyBi-Well (CyBio) liquid-handling robot (1 µL per well). On each plate,
239 a column of no enzyme negative controls and no inhibitor (DMSO only) positive controls were
240 included. The plate was briefly centrifuged (1000 rpm), then incubated (ambient temperature,15 min).
241 A solution containing 100 mM TAPS (pH 8.5), 50 µM tigecycline and 500 µM NADPH was then
242 dispensed, with 25 µL per well. The plate was briefly centrifuged (1000 rpm), then transferred to a
243 CLARIOstar Plus Microplate reader. The absorbance was monitored at wavelength […] over the
244 course of 2 hours (23 flashes / cycle, 180 s cycle time, 41 data points, 25 ° C). The initial rate was
245 calculated by measuring the rate of change of A400 during the initial linear regime. Initial rates were
246 normalised between positive and negative controls. The normalised % response was plotted as a
247 function of log10([Inhibitor]) in molar units, and the IC50 was determined as above. […]

Experiment [2] addresses T1, Tet(X4). The experiment in a line: biochemical. How it is done: We then tested the binding of reported type 1 TDase inhibitors to Tet(X4) (Fig. 3f, ESI Fig. S17 ^†).[33,38,39] […] We also developed a complementary endpoint activity assay where the turnover of tigecycline by Tet(X4) in a 96-well plate was quenched by addition of 1%v/v formic acid and analysed chromatographically. The peak integrals of tigecycline and its hydroxylated degradation product at 254 nm following UPLC analysis were measured to determine turnover (Fig. 5a).
[…] A 3-fold, 10-point dilution series of the substrates and inhibitors was made in DMSO with a top concentration of 10 mM, unless otherwise stated, and transferred to the enzyme solution using a CyBi-Well liquid-handling robot (CyBio), 1 μL per well. On each plate, a column of no enzyme negative controls and no inhibitor (DMSO only) positive controls were included. The plate was incubated at 30 °C for 15 min. A solution containing 100 mM TAPS (pH 8.5), 40 μM tigecycline and 200 μM NADPH was then dispensed, with 49 μL per well. The plate was incubated at 30 °C for 20 min at 600 rpm. 10 μL of 10%v/v formic acid solution was then dispensed into all wells. Samples were analysed using an ACQUITY H-Class PLUS UPLC instrument (Waters) equipped with a pre-equilibrated ACQUITY BEH C18 column ([…], […], Waters) using a gradient of 1–50%v/v acetonitrile with 0.1%v/v formic acid in water with 0.1%v/v formic acid over 1.83 minutes at a flow rate of 0.5 mL min^−1. Instrument control and data processing were performed using MassLynx V4.1 software. The peaks representing tigecycline and 11a-hydroxy-tigecycline were integrated, used to calculate % conversion and then normalised between positive and negative controls. The normalised % response was plotted as a function of log10[Inhibitor], and the IC50 determined as described above.

The target of experiment [3] is T1, Tet(X4). The experiment in a line: FP competitive displacement of probe 6. In kind it is binding. The settings on record: for IC50: 25 nM 6, 40 nM Tet(X4), 5 mM MgCl2, 1 μM FAD, 100 mM Tris pH 7.0, 0.01% Triton X-100; for displacement of probe 6 / competitive binding (in words): up to a maximum concentration of 100 μM. In outline:
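FP displacement of probe 6 (added as 50 nM solution) from Tet(X4) (2× mix: 80 nM enzyme, 2 μM FAD, 10 mM MgCl2), 30 min at ambient temperature. Dose-response used 3-fold, 10-point DMSO series (top 5 or 0.5 mM stock). IC50^app came from a Hill fit of control-normalised response. Library screening used 10 μM compound, 0.1% DMSO, […].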

The target of experiment [4] is Tet(X5). The experiment in a line: Fluorescence polarisation binding assay of probes with purified TDase. The settings on record: 25 nM probe, 5 mM MgCl2, 1 μM FAD, 100 mM Tris pH 7.0, 0.01% Triton X-100. How it is done:
(§1) NADPH was not included to prevent turnover of the probe to the hydroxylated product, which would likely have a lower binding affinity than the initial probes. Screens were conducted in pH 7.0 buffer with addition of 0.01% Triton-X100 detergent in non-binding plates to minimise adsorption to the plate wells.[45]
(§2) Aliquots of TDases were thawed and serially diluted with the assay buffer (100 mM Tris, pH 7.0 with 0.01% Triton X-100) in a V-bottom 96-well plate (Greiner Bio-One). 12.5 μL of each concentration of enzyme was transferred in quadruplicate to a 384-well black, non-binding microtiter plate (Greiner Bio-One). Aliquots of 2 mM stock of fluorescent probes 5 and 6 in DMSO were thawed and diluted to 50 nM in the assay buffer with 2 μM FAD and 10 mM MgCl2. 12.5 μL of this solution was added to wells containing enzyme. A negative control of 12.5 μL of the probe solution with 12.5 μL of the assay buffer was included on each plate. The plate was briefly centrifuged (1000 rpm), then incubated at ambient temperature for 30 min before measuring the FP response using a PHERAstar FS microplate reader (BMG Labtech) equipped with an FP optic module (excitation = 540 ± 20 nm, Emission = 590 ± 20 nm, 200 flashes per well). ΔmP values were calculated by subtracting the average mP of the negative controls from the mP measured for each well. To calculate Kd values, the derived ΔmP values were plotted as a function of enzyme concentration and a one-site specific binding model was applied (GraphPad Prism 9.4.1).
On the technique in general: Polarisation of emitted light reports the rotation of a fluorescent probe.

Experiment [5] has as its target T2, Tet(50) (Unknown prokaryotic organism, UniProt A0A059WYP6).
T2 construct: made in house; host or cells: E. coli BL21(DE3)
Described as above. How it is done:
as §1, §2

Experiment [6] addresses Tet(X7). The experiment is described as above. The settings on record: 25 nM probe, 5 mM MgCl2, 1 μM FAD, 100 mM Tris pH 7.0, 0.01% Triton X-100. How it is done:
as §1, §2

Experiment [7] addresses T3, Tet(X2) (Bacteroides thetaiotaomicron, UniProt Q93L51).
T3 construct: For Tet(X2), the full-length protein was prepared rather that the Δ1–10 mutant used previously for crystallographic studies; made in house; host or cells: E. coli BL21(DE3)
The experiment is described as above. As for the experimental part: as §1, §2

The target in experiment [8] is T1, Tet(X4). The description is as above. The settings on record: 25 nM probe, 5 mM MgCl2, 1 μM FAD, 100 mM Tris pH 7.0, 0.01% Triton X-100; read-out: Kd. As for the experimental part:
as §1
as §2, with “Aliquots of 2 mM stock of fluorescent probes 5 and 6 in DMSO were thawed and diluted to 50 nM in the assay buffer with 2 μM FAD and 10 mM MgCl2.” left out

Setting [9] is: 25 μM tigecycline, 50 nM Tet(X4), 250 μM NADPH, 5 mM MgCl2, 1 μM FAD, 100 mM TAPS pH 8.5, read-out: IC50, Absorbance assay.
Setting [10] is: 20 μM tigecycline, 50 nM Tet(X4), 100 μM NADPH, 5 mM MgCl2, 1 μM FAD, 100 mM TAPS pH 8.5, read-out: IC50, UPLC assay.

Where two headings read alike, the source gives them in different places. A value given as a limit tells only on which side of the number the result lay.

On to `Cc1c2c(c(O)c3c(O)c(Br)ccc13)C(=O)[C@@]1(O)C(=O)C(C(N)=O)=C(O)[C@@H](N(C)C)[C@@H]1C2` [9-Bromo-anhydrotetracycline], for which the IC50 worked out at 4.5 ± 0.6 µM in experiment [1] (setting [9]); 2.7 ± 0.5 µM in experiment [2] (setting [10]); 0.0404 ± 0.0105 µM in experiment [3] (read-out: IC50app, FP assay). Besides, in experiment [3], the “displacement of probe 6 / competitive binding (in words)” value is given as “clear dose-dependent displacement”.
Take `CC1=CC(=O)c2c(O)cccc2C1=O` [Plumbagin]: the IC50 in experiment [1] is 49.1 ± 4.9 µM; in experiment [2] (setting [10]), 37.2 ± 8.2 µM; in experiment [3] (IC50app, FP assay), more than 100 µM. For the same compound, the “inhibition in the absorbance assay (in words)” value in experiment [1] is recorded as “moderate”. Further, in experiment [2] (AZT up to 100 μM), the “inhibition in the UPLC assay (in words)” value is “moderate”. For the same compound, in experiment [3], the “displacement of probe 6 / competitive binding (in words)” value is “minimal competitive binding”.
As to `Cc1cn([C@H]2C[C@H](N=[N+]=[N-])[C@@H](CO)O2)c(=O)[nH]c1=O` [Azidothymidine], the IC50 in experiment [1] is more than 1000 µM; in experiment [2] (IC50, UPLC assay), more than 100 µM; in experiment [3] (IC50app, FP assay), more than 100 µM. The “inhibition in the absorbance assay (in words)” value in experiment [1] is “No inhibition”. Further, the “inhibition in the UPLC assay (in words)” value in experiment [2] was “No inhibition”. The “displacement of probe 6 / competitive binding (in words)” value in experiment [3] is given as “minimal competitive binding”.
On to `COC1=CC(=O)c2ccccc2C1=O` [2-Methoxy-1,4-naphthoquinone], for which the IC50 is 421 ± 50 µM in experiment [1] (setting [9]); more than 100 µM in experiment [2] (setting [10]); more than 100 µM in experiment [3] (IC50app, FP assay). In experiment [1], the “inhibition in the absorbance assay (in words)” value is “weak”. Besides, the “inhibition in the UPLC assay (in words)” value in experiment [2] (AZT up to 100 μM) is “weak”. In addition, in experiment [3], the “displacement of probe 6 / competitive binding (in words)” value is listed as “minimal competitive binding”.
For `CN(C)c1ccc2c(-c3ccc(C(=O)NCC(=O)Nc4cc(N(C)C)c5c(c4O)C(=O)C4=C(O)[C@]6(O)C(=O)C(C(N)=O)=C(O)[C@H](N(C)C)[C@@H]6C[C@@H]4C5)cc3C(=O)[O-])c3ccc(=[N+](C)C)cc-3oc2c1` [Probe 5], the dissociation constant Kd in experiment [4] was 0.0299 ± 0.0027 µM; in experiment [5] (25 nM probe, 5 mM MgCl2, 1 μM FAD, 100 mM Tris pH 7.0, 0.01% Triton X-100), more than 5 µM; in experiment [6] it was 0.126 ± 0.015 µM; in experiment [7], 0.0669 ± 0.0103 µM; in experiment [8], 0.0465 ± 0.0041 µM. The “binding to Tet(50) (in words)” value in experiment [5] (up to a concentration of 5 μM of enzyme) is reported as “no detectable binding”.
